Experimental data from paper PMC5861220, “The Cytochrome P450-Mediated Metabolism Alternation of Four Effective Lignans From Schisandra chinensis in Carbon Tetrachloride-Intoxicated Rats and Patients With Advanced Hepatocellular Carcinoma” (Frontiers in Pharmacology, 2018).
Read-outs that look alike come from different tables or passages of the source.

Legend:
[1] = Identification of CYP450 isozymes in lignan metabolism, rat liver microsomes (no inhibitor / overall); assay type: in vitro ADME; settings: rat, 5 μM, pH 7.4
Method: (§1) The CYP450s involved in the metabolism of schisandrin, schisantherin A, deoxyshisandrin and γ-schisandrin in rat or human liver microsomes were confirmed by comparison of the metabolism ratio before and after the addition of selective inhibitors to CYP450 isozymes. […] The supernate was injected to HPLC-MS for analysis of the four lignans.

[2] = Pharmacokinetics of four lignans in rats after oral SC alcoholic extract; assay type: in vivo, rat; settings: for AUC(0-t) / Cmax / half-life / CL/F / MRT last / Tmax: Sprague-Dawley, rat, plasma, po, 1.5 g/kg/day, oral SC alcoholic extract 1.5 g/kg/day for 4 days, n = 5; for CL/F: read-out: CLz/F (converted); for MRT last: read-out: MRT(0−t); for Tmax: read-out: Tmax
Method: The pharmacokinetic profiles of four lignans were studied in ALI rat after multiple oral administrations of SC alcoholic extract at dose of 1.5 g/kg/day. After the ALI rat was established, SC alcoholic extract suspended in 0.5% sodium carboxymethyl cellulose was given to ALI rats and the control via oral gavage once a day for 4 consecutive days. Before the last dosing, rats were fasted for 12 h while water was taken freely. Blood samples were collected at 0, 0.25, 0.5, 1, 2, 3, 4, 6, 8, 12, 24, 36, and 48 h after the last dosing. A cannula was surgically placed into the jugular vein for collection of blood samples (about 0.1 mL) and blood loss compensation using sterile isotonic saline in the pharmacokinetic study. Plasma was separated by centrifugation and stored at −20°C until analysis. Plasma concentrations of the four lignans were quantified using HPLC-MS analysis developed according to the reported method (Wang et al., [2008]).
Data fitting and pharmacokinetic parameter calculations were carried out using the Winnolin software. Non-compartmental analysis was used to calculate the pharmacokinetic parameters. Parameters, such as AUC and MRT, were calculated using statistical moment method.

[3] = Transport across Caco-2 cell monolayer; assay type: in vitro ADME; settings: human, Caco-2
Method: Caco-2 cell (passage 38) was used in the transport experiments. Cells were seeded on polycarbonate filters (12 mm diameter, pore size […]) at 1 × 10^5/cm^2. The cell monolayer was formed 21 days post seeding when the transepithelial electrical resistance (TEER) was above 1,000 Ω• cm^2. Three concentration levels (5, 10, and 50 μM) were set for the four schisandra lignans in the study. After preincubation for 1 h at 37°C, the solution of the four lignans was respectively added to the apical (0.4 mL) or basolateral (0.6 mL) chamber for absorptive (AP → BL) and secretive (BL → AP) permeability test. At the specified timepoints (0.5, 1, 1.5 and 2 h), 50 μL samples (n = 3) were withdrawn from receiver chamber, and meanwhile, 50 μL fresh buffer was added. The four lignans were determined by HPLC-MS method.
The efflux rate (ER) was calculated by the formula ER = Papp (BL → AP)/Papp(AP → BL).

[4] = test system: rat intestine (jejunum segment); assay: In situ intestinal perfusion of four lignans; assay type: in vivo; settings: for Perfusate (Percent of the initial dose) / Plasma (Percent of the initial dose) / Intestine (Percent of the initial dose) / Pblood / Plumen: 50 μM, n = 3; for Perfusate (Percent of the initial dose): intestinal perfusion 60 min; for Plasma (Percent of the initial dose) / Intestine (Percent of the initial dose): intestinal perfusion; for Plasma (Percent of the initial dose): mesenteric vein blood
Method: The surgical procedures of intestinal perfusion were conducted according to those published reports (Savina et al., [1981]). Hank's balanced salt solution (HBSS, pH 7.4) with four schisandra lignans (50 μM) at 37°C was infused into the jejunum segment at rate of 0.3 mL/min. Phenol Red (50 μM) was added to serve as a nonabsorbable marker for measuring water flux. Blood samples from mesenteric vein and perfusate were collected at 5-min interval. The plasma separated by centrifugation and perfusate was stored at −20°C until HPLC-MS analysis.
The permeability of four lignans across the rat intestine was calculated based on the disappearance of parent drug from the lumen (Plumen) as well as the appearance of the drug in blood (Pblood) using the following equations (Singhal et al., [1998]):
(1) Plumen = −Q/2πrlLnCout/Cin
(1) Pblood = ΔMB/Δt/2πrl{C}
where r is the radius of the perfused intestinal lumen; l is the length of the segment; Q is the flow rate of perfusate; Cin is the concentration of drug at the start of perfusion; and Cout is the steady-state concentration of drug exiting the lumen. ΔMB/Δt is the rate of drug appearance in mesenteric blood; and {C} is the logarithmic mean concentration of drug in the lumen.

rat liver = assay: In situ hepatic perfusion of four lignans; assay type: in vivo; settings: hepatic perfusion 60 min, 10 μM, n = 3
Method: (§2) In situ liver perfusion was performed similarly as the method described previously (Uraki et al., [2016]). […] The perfusate consisted of Krebs–Hensleit buffer (pH 7.4) containing sodium taurocholate (4.75 mg/L), 1% bovine serum albumin, and glucose (1.2 g/L) was oxygenated using carbogen, 95% O2/5% CO2. The perfusate at 37°C was infused into the portal vein at a flow rate of 30 mL/min in a recirculatory manner. After 10-min equilibration, four schisandra lignans were added to the reservoir (final concentration of 10 μM). Perfusate (0.5 mL) and bile samples were collected at 0, 10, 20, 30, 40, 50, and 60 min after the addition of lignans. The same volume of blank perfusion buffer was immediately added to the reservoir after collection of the perfusate samples. After hepatic perfusion, rat was sacrificed and liver was removed, blotted dry, and weighed.

[5] = In situ hepatic perfusion of four lignans; assay type: in vivo, rat; settings: Sprague-Dawley, rat, perfusate, perfusate AUC(0−1h), n = 3
Method: as §2

[6] = Identification of CYP450 isozymes in lignan metabolism, human liver microsomes (no inhibitor); assay type: in vitro ADME; settings: human, 5 μM, pH 7.4
Method: as §1

**Q.** Which Metabolism rate [1] does the source give for COc1cc2c(c(OC)c1OC)-c1c(cc3c(c1OC)OCO3)C[C@H](C)[C@H](C)C2 [γ-Schisandrin, γ-schisandrin] here?
**A.** 79.6 ± 6.5 nmol/min/mg

**Q.** What about the “Reduction of systemic clearance (CLz/F)” value ([2]; CCl4 intoxicated rats vs control rats) of the same compound?
**A.** ~54%

**Q.** What about the AUC(0-t) ([2]; CCl4-intoxicated rats) of the same compound?
**A.** 11600 ± 3090 ng·h/mL

**Q.** What about the Cmax ([2]; CCl4-intoxicated rats) of the same compound?
**A.** 628 ± 164 ng/mL

**Q.** What about the half-life ([2]; CCl4-intoxicated rats) of the same compound?
**A.** 14.5 ± 5.05 h

**Q.** And the CL/F ([2]; CCl4-intoxicated rats)?
**A.** 25.2 mL/min/kg

**Q.** What about the MRT last ([2]; CCl4-intoxicated rats) of the same compound?
**A.** 15.9 ± 1.24 h

**Q.** What about the Tmax ([2]; CCl4-intoxicated rats) of the same compound?
**A.** 4.2 ± 1.79 h

**Q.** What about the AUC(0-t) ([2]; Control (normal) rats) of the same compound?
**A.** 5220 ± 1430 ng·h/mL

**Q.** And the Cmax ([2]; Control (normal) rats)?
**A.** 182 ± 103 ng/mL

**Q.** What about the half-life ([2]; Control (normal) rats) of the same compound?
**A.** 15.4 ± 2.52 h

**Q.** And the CL/F ([2]; Control (normal) rats)?
**A.** 54.3 mL/min/kg

**Q.** And the MRT last ([2]; Control (normal) rats)?
**A.** 16.5 ± 0.94 h

**Q.** What about the Tmax ([2]; Control (normal) rats) of the same compound?
**A.** 6.4 ± 0.89 h

**Q.** And the Papp A→B at 2 h, 5 μM ([3]; 5 μM)?
**A.** 1.17 ± 0.16 ×10⁻⁶ cm/s

**Q.** And the Papp B→A at 2 h, 5 μM ([3]; 5 μM)?
**A.** 1.32 ± 0.14 ×10⁻⁶ cm/s

**Q.** What about the efflux ratio at 2 h, 5 μM ([3]; 5 μM, ER = Papp (BL → AP)/Papp(AP → BL)) of the same compound?
**A.** 1.13

**Q.** And the Papp A→B at 2 h, 10 μM ([3]; 10 μM)?
**A.** 1.18 ± 0.09 ×10⁻⁶ cm/s

**Q.** And the Papp B→A at 2 h, 10 μM ([3]; 10 μM)?
**A.** 1.34 ± 0.11 ×10⁻⁶ cm/s

**Q.** And the efflux ratio at 2 h, 10 μM ([3]; 10 μM, ER = Papp (BL → AP)/Papp(AP → BL))?
**A.** 1.14

**Q.** And the Papp A→B at 2 h, 50 μM ([3]; 50 μM)?
**A.** 1.22 ± 0.16 ×10⁻⁶ cm/s

**Q.** What about the Papp B→A at 2 h, 50 μM ([3]; 50 μM) of the same compound?
**A.** 1.32 ± 0.2 ×10⁻⁶ cm/s

**Q.** And the efflux ratio at 2 h, 50 μM ([3]; 50 μM, ER = Papp (BL → AP)/Papp(AP → BL))?
**A.** 1.08

**Q.** What about the “Perfusate (Percent of the initial dose)” value ([4]; CCl4-intoxicated rats) of the same compound?
**A.** 91.92 ± 1.69% of the initial dose

**Q.** What about the “Plasma (Percent of the initial dose)” value ([4]; CCl4-intoxicated rats) of the same compound?
**A.** 0.82 ± 0.06% of the initial dose

**Q.** And the “Intestine (Percent of the initial dose)” value ([4]; CCl4-intoxicated rats)?
**A.** 1.87 ± 0.20% of the initial dose

**Q.** What about the Pblood ([4]; CCl4-intoxicated rats) of the same compound?
**A.** 0.066 ± 0.018 × 10^−4 cm/s

**Q.** And the Plumen ([4]; CCl4-intoxicated rats)?
**A.** 2.540 ± 0.423 × 10^−4 cm/s

**Q.** And the “Perfusate (Percent of the initial dose)” value ([4]; Control rats)?
**A.** 92.57 ± 1.67% of the initial dose

**Q.** And the “Plasma (Percent of the initial dose)” value ([4]; Control rats)?
**A.** 0.84 ± 0.09% of the initial dose

**Q.** And the “Intestine (Percent of the initial dose)” value ([4]; Control rats)?
**A.** 1.66 ± 0.27% of the initial dose

**Q.** And the Pblood ([4]; Control rats)?
**A.** 0.052 ± 0.009 × 10^−4 cm/s

**Q.** And the Plumen ([4]; Control rats)?
**A.** 2.543 ± 0.174 × 10^−4 cm/s

**Q.** And the “Increase of remaining amount in perfusate” value ([4]; intestinal autoperfusion (60 min), CCl4-treated rats vs control)?
**A.** not changed

**Q.** What about the “Total amount of analyte in bile” value (rat liver; CCl4-intoxicated rats) of the same compound?
**A.** 1.19 ± 0.28 µg

**Q.** What about the “Total amount of analyte in liver” value (rat liver; CCl4-intoxicated rats) of the same compound?
**A.** 14.25 ± 1.36 µg

**Q.** And the “Total amount of analyte in bile” value (rat liver; Control rats)?
**A.** 1.37 ± 0.14 µg

**Q.** And the “Total amount of analyte in liver” value (rat liver; Control rats)?
**A.** 11.10 ± 1.31 µg

**Q.** What about the AUC at 10 μM ([5]; pH 7.4, CCl4-intoxicated rats) of the same compound?
**A.** 3740 ± 70 ng·h/mL

**Q.** What about the AUC at 10 μM ([5]; pH 7.4, Control rats) of the same compound?
**A.** 3190 ± 70 ng·h/mL

**Q.** And the Metabolism rate [6]?
**A.** 194.1 ± 12.9 nmol/min/mg
